Assay results reported in ChEMBL document CHEMBL1142620, “Anthraquinones and betaenone derivatives from the sponge-associated fungus Microsphaeropsis species: novel inhibitors of protein kinases” (J Nat Prod, 2000).
pIC50: −log10 of the molar value.

Legend:
[1] = biological target: Epidermal growth factor receptor (Homo sapiens, UniProt P00533); test: Inhibition of human recombinant EGFR kinase expressed in Sf9 insect cells
[2] = biological target: Cyclin-dependent kinase 4/cyclin D1 (Homo sapiens, UniProt P11802); test: Inhibition of human recombinant CDK4/cyclin D1 kinase expressed in Sf9 insect cells
Cyclin-dependent kinase 4/cyclin D1, sequence (P11802 whole entry): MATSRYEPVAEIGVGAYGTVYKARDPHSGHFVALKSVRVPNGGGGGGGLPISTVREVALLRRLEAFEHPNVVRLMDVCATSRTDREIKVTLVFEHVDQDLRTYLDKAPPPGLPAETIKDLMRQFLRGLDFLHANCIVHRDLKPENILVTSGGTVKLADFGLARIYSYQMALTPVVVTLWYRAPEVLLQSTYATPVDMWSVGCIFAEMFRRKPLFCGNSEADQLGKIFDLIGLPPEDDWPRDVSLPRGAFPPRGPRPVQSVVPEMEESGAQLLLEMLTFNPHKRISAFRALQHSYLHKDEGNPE
Cyclin-dependent kinase 4/cyclin D1, sequence (P24385 whole entry, further chain): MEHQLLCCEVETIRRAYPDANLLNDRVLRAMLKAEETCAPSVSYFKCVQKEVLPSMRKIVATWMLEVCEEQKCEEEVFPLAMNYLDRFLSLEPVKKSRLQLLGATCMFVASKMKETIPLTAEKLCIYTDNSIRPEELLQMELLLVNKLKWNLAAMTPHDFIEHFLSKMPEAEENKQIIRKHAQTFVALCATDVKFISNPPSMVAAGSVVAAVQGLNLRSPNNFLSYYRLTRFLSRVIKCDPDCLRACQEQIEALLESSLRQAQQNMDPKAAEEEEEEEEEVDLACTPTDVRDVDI

[3] = biological target: T1, Protein kinase C epsilon type (Mus musculus, UniProt P16054); test: Inhibition of mouse recombinant PKCepsilon expressed in Sf9 insect cells
T1 sequence (P16054 whole entry): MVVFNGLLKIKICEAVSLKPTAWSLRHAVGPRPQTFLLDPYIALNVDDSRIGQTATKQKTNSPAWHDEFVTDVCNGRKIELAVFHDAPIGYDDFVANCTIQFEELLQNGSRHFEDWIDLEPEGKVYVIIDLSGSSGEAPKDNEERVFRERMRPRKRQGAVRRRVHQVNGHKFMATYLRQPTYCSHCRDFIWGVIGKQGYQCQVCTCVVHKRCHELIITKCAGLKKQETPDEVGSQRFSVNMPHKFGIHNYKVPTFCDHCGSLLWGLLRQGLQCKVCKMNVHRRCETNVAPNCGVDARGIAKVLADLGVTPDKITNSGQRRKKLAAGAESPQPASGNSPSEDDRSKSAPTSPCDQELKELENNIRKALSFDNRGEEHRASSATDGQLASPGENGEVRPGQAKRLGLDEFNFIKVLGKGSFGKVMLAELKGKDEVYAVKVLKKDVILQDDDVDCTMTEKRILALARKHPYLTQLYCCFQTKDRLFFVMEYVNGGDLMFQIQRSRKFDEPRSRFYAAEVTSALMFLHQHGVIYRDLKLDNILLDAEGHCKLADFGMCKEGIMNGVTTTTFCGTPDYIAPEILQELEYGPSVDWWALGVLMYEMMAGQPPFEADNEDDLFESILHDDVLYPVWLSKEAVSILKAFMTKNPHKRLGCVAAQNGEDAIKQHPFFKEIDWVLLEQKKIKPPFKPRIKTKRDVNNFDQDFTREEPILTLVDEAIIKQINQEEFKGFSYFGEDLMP

Epidermal growth factor receptor, sequence (P00533 whole entry): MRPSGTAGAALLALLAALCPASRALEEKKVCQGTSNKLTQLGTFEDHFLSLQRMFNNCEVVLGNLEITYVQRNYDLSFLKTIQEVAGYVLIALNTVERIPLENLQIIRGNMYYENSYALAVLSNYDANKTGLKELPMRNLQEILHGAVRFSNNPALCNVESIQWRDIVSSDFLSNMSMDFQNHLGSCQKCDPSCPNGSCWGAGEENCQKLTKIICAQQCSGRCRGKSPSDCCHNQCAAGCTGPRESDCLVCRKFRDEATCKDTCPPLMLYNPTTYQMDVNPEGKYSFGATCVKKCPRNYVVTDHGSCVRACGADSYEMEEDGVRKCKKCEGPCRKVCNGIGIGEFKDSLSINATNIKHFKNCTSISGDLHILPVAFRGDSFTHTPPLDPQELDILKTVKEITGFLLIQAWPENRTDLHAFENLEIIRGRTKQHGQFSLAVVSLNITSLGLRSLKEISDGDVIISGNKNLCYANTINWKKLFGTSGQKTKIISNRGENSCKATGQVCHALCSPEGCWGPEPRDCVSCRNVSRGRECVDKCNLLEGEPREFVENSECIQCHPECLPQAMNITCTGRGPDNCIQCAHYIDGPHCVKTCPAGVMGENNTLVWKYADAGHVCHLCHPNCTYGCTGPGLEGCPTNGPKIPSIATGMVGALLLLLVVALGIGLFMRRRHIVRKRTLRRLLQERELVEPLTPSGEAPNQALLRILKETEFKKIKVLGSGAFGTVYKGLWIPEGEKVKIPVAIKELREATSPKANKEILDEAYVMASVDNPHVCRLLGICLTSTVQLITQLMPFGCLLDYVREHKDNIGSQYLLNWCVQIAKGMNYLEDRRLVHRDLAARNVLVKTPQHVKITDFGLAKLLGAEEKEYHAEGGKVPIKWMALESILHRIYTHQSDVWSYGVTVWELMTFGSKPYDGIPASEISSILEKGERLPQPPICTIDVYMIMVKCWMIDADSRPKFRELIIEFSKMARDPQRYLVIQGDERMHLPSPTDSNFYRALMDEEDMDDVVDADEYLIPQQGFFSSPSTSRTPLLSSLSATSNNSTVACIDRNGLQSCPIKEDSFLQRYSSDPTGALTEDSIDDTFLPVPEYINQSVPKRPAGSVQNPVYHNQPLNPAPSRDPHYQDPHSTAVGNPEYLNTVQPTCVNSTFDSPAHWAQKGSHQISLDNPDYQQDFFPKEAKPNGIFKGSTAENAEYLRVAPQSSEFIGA

Row | Structure (SMILES) | pIC50 [1] | pIC50 [2] | pIC50 [3]
1 | CO[C@H](C)c1c(O)cc2c(c1O)C(=O)c1c(O)cc(O)cc1C2=O | 4.56 | 4.65 | 4.57
2 | CO[C@H](C)c1c(O)cc2c(c1O)C(=O)c1c(cc(O)c(O)c1O)C2=O | 4.39 | 4.43 | 4.27
3 | CCC(C)[C@@H]1[C@@](C)(C(=O)/C=C/OC)[C@H]2[C@H](C)C[C@@](C)(O)C[C@]2(O)C(=O)[C@@]1(C)O (stereo not given in full) | 4.98 | 4.94 | 4.44

Next, values leading:

Row | pIC50 [1] | pIC50 [2] | pIC50 [3] | Structure (SMILES)
4 | < 4.00 | < 4.00 | < 4.00 | CCC(C)[C@@H]1[C@@](C)(C(=O)/C=C/N(c2ccccc2)c2ccc3ccccc3c2)[C@H]2[C@H](C)C[C@@](C)(O)C[C@]2(O)C(=O)[C@@]1(C)O (stereo not given in full)
5 | 4.43 | 4.36 | 4.73 | C[C@@H](O)c1c(O)cc2c(c1O)C(=O)c1c(O)cc(O)cc1C2=O
